Target: T1, human KSP motor domain (KSP(367H)) (Homo sapiens, UniProt P52732)
T1 construct: were used to amplify the motor domain and the neck linker region; made in house; host or cells: E. coli BL21 (DE3), vector pRSETa
T1 sequence (P52732 18-359 limits assumed): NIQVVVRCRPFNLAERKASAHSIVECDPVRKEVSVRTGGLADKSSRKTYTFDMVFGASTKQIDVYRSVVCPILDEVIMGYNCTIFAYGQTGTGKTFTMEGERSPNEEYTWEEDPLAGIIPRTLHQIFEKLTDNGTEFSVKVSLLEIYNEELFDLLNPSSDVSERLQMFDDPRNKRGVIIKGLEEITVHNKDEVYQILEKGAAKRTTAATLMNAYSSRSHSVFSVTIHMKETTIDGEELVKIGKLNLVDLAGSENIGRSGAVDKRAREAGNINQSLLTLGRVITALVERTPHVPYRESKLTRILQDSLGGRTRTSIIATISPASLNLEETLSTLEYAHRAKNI
Assay: Kinesin ATPase In Vitro Assay
Assay type: biochemical
Settings: enantiomers of 1-5 resolved on Chiralpak AD; assay not stated
From the text: I. Kinesin ATPase In Vitro Assay
Cloning and Expression of Human Poly-Histidine Tagged KSP Motor Domain (KSP(367H))
Plasmids for the expression of the human KSP motor domain construct were cloned by PCR using a pBluescript full length human KSP construct (Blangy et al., Cell, vol. 83, pp 1159-1169, 1995) as a template. The N-terminal primer 5′-[…] (SEQ.ID.NO.: 1) and the C-terminal primer 5′-[…] […] (SEQ.ID.NO.: 2) were used to amplify the motor domain and the neck linker region. The PCR products were digested with AseI and XhoI, ligated into the NdeI/XhoI digestion product of pRSETa (Invitrogen) and transformed into E. coli BL21 (DE3).
Cells were grown at 37° C. to an OD600 of 0.5. […]
The kinesin motor domain is incubated with microtubules, 1 mM ATP (1:1 MgCl2: Na-ATP), and compound at 23° C. in buffer containing 80 mM K-HEPES (pH 7.0), 1 mM EGTA, 1 mM DTT, 1 mM MgCl2, and 50 mM KCl. […] Free phosphate from the ATP hydrolysis reaction is measured via a quinaldine red/ammonium molybdate assay by adding a […] of quench C (e.g., to a mixture of 40 μl reaction volume+40 μl stop buffer is then added 120 μl quench C). […] Quench C is a 2:1 ratio of quench A:quench B The reaction is incubated for 5-10 minutes at 23° C., and the absorbance of the phospho-molybdate complex is measured at 540 nm.

SMILES: CC(=O)N1N=C(c2cc(F)ccc2F)C[C@@]1(CCCO)c1ccccc1 (single isomer, unassigned; isomer 3) [(S) isomer]
- activity of resolved enantiomer (active / inactive): active

Reference: patent US7718687B2, “Prodrugs of mitotic kinesin inhibitors” (Merck Sharp & Dohme Corp.,, priority 2004, dated 2010)
